Earlier results in patent publication US20110039787A1, “COMPOSITIONS, KITS AND METHODS FOR TREATING BENIGN PROSTATE HYPERPLASIA” (priority 2009, published 2011).

Test system: BPH
Details: cited from earlier work

Compound	IPSS change (maximum of known medicinal treatments, FIG. 2) (AUA Guideline on the Management of BPH (2006), historical comparison)	Maximum reduction in mean IPSS (preliminary study, European Urology 54 (2008) 170-180)
CCOc1ccccc1OCCN[C@H](C)Cc1ccc(OC)c(S(N)(=O)=O)c1 [Tamsulosin]	approximately −7.5	
cetrorelix glucoronate		−5.4 to −5.9
